Read-outs that look alike come from different tables or passages of the source.
Legend:
S6 ribosomal protein = test: Immunoblotting, pathway activation; assay type: cell-based, human; settings: PQIP 0.4 μmol/L 3 h, with or without IGF-2 stimulation
Method: (§1) Immunoprecipitation and Immunoblotting: HT29 and HCT116 CRC cell lines were seeded into 6-well plates, allowed to attach for 24 hours and serum starved overnight. Cells were then exposed to IGF-2 (100 ng/mL) for 10 minutes with or without a 3 hour PQIP (0.4 μmol/L) pretreatment. After treatment cells were rinsed with PBS and scraped into RIPA lysis buffer containing protease inhibitors, EDTA, NaF, and sodium orthovanadate. Total protein was quantified using the BioRad Dc Protein Assay (BioRad, Hercules, Calif.). Total protein (30 μg) was electrophoresed on a 4-20% gradient SDS-polyacrylimide gel then electrophoretically transferred to Immobilon-P (Millipore, Bedford, Mass.). Membranes were blocked for 1 hour in 5% non-fat dry milk (BioRad, Hercules, Calif.) in TBS-Tween (0.1%) prior to overnight incubation at 4° C. with the appropriate primary antibody. Blots were then washed 3×20 minutes in TBS-Tween (0.1%) and were incubated with the appropriate secondary anti-rabbit or anti-mouse IgG1 horseradish peroxidase-linked antibody at 1:20,000 (Jackson ImmunoResearch, West Grove, Pa.) for one hour at room temperature. After three additional washes, the blots were developed by Immobilon Western Chemiluminescent HRP substrate (Millipore, Billerica, Mass.). Anti-IGF1Rβ rabbit polyclonal (Cell Signaling Technology, Danvers, Mass.) was used for immunoprecipitation at a 1:50 dilution. The following primary antibodies were used for immunoblotting (all from Cell Signaling Technology, Danvers, Mass.). Anti-phosphorylated Akt (T308) rabbit polyclonal, anti-phosphorylated S6 ribosomal protein (S235/236) rabbit mAb, anti-phosphorylated p44/42 MAPK (Thr202/Tyr204) rabbit mAb, and anti-phosphorylated tyrosine mouse mAb at 1:1.000. Anti-Akt (pan) rabbit mAb, anti-S6 ribosomal protein rabbit mAb, anti-p44/42 MAP Kinase rabbit mAb, anti Pan-Actin rabbit polyclonal, anti-IGF1Rβ rabbit polyclonal, anti-PARP rabbit polyclonal, and anti-cyclin D1 rabbit polyclonal at 1:5000.
(§2) Effect of PQIP on receptor phosphorylation and pathway activation: Since PQIP is expected to inhibit autophosphorylation of IGF1R, we tested its ability to inhibit IGF-2 mediated activation of the receptor and pathway. One PQIP sensitive and one PQIP resistant CRC cell line were chosen for immunoprecipitation and immunoblotting analysis. Following 18 h serum starvation, HT29 and HCT116 CRC cell lines were stimulated or unstimulated for 10 minutes with 100 ng/mL of IGF-2 with or without a 3 h pre-exposure to PQIP (0.4 μmol/L).

p42/44 MAPK = test: Immunoblotting, pathway activation; assay type: cell-based, human; settings: PQIP 0.4 μmol/L 3 h pre-exposure, IGF-2 100 ng/mL 10 minutes
Method: as §1, §2

Akt = test: Immunoblotting, pathway activation; assay type: cell-based, human; settings: PQIP 0.4 μmol/L 3 h, with or without IGF-2 stimulation
Method: as §1, §2

IGF1R = target: T1, IGF1R (Homo sapiens, UniProt P08069); test: Immunoprecipitation and immunoblotting, IGF-2 induced receptor autophosphorylation; assay type: cell-based; settings: PQIP 0.4 μmol/L 3 h pre-exposure, IGF-2 100 ng/mL 10 minutes
T1 construct: endogenous in cells; host or cells: HT29 and HCT116 CRC cell lines
Source text: Total protein was quantified using the BioRad Dc Protein Assay (BioRad, Hercules, Calif.).

GEO CRC cell line = test: SRB proliferation assay, 72 h; assay type: cell-based; settings: Homo sapiens
Method: Cell proliferation was evaluated by SRB following exposure to OSI-906 for 72 hours. Cells were plated at an optimized density in 96-well plates, incubated overnight at 37° C., and then exposed to a serial dilution of OSI-906. After 72 hours incubation, cells were fixed with trichloroacetic acid and an SRB was performed as described in materials and methods.
Cell Lines and Culture: Twenty-seven human colon cancer cell lines, were obtained from American Type Culture Collection (Manassas, Va.). The GEO cells were a generous gift from Dr. Fortunato Ciardiello (Cattedra di Oncologia Medica, Dipartimento Medico-Chirurgico di Internistica Clinica e Sperimentale “F Magrassi e A Lanzara,” Seconda Università degli Studi di Napoli, Naples). All cells except GEO were grown in RPMI medium supplemented with 10% fetal bovine serum, 1% non-essential amino acids, 1% penicillin/streptomycin and were maintained at 37° C. in an incubator under an atmosphere containing 5% CO2. GEO cells were grown in DMEM/F12 supplemented with 10% fetal bovine serum, 1% non-essential amino acids, 1% penicillin/streptomycin. The cells were routinely screened for the presence of mycoplasma (MycoAlert, Cambrex Bio Science, Baltimore, Md.) and were exposed to OSI-906 when they reached approximately 70% confluence. OSI-906 was provided by OSI Pharmaceuticals, (Boulder, Colo.) and prepared as a 10 mM stock solution in DMSO.

T1 sequence (P08069 31-1367): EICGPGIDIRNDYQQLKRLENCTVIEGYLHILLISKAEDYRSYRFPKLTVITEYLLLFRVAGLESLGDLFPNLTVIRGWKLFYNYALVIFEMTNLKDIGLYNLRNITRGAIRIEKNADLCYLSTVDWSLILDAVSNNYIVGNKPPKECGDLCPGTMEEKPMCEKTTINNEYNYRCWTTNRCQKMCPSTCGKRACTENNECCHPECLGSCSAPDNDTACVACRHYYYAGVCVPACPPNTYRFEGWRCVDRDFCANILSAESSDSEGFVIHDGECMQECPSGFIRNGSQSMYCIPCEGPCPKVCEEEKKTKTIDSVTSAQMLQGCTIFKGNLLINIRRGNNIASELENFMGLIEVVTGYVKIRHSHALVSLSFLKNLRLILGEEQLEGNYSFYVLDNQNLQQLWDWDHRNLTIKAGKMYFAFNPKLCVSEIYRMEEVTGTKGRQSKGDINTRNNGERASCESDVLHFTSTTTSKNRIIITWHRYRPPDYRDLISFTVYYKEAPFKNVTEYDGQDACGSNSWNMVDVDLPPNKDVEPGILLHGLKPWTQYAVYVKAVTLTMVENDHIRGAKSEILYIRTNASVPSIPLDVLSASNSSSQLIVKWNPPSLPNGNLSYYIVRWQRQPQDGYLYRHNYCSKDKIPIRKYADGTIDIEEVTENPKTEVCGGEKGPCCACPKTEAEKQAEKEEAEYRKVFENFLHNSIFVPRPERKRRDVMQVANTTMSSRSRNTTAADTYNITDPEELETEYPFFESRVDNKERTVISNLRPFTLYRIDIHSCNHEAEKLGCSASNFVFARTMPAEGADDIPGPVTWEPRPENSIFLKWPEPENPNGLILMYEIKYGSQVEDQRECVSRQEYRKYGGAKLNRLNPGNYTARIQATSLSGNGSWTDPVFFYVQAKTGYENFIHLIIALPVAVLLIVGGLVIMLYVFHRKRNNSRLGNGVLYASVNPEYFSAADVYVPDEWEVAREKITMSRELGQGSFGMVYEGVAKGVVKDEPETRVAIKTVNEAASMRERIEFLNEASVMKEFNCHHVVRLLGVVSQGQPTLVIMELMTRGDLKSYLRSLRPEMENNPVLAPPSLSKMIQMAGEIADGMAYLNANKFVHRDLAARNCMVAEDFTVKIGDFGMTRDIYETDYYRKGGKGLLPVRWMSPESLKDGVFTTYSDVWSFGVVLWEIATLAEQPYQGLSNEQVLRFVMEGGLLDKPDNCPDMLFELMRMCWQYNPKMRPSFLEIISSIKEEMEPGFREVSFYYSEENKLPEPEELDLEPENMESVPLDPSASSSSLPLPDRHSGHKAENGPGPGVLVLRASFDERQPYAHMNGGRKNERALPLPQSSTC

## CN1CCN([C@H]2C[C@@H](c3nc(-c4ccc5ccc(-c6ccccc6)nc5c4)c4c(N)nccn43)C2)CC1 [PQIP, cis-3-[3-(4-Methyl-piperazin-1-yl)-cyclobutyl]1-(2-phenyl-quinolin-7-yl)-imidazo[1,5-a]pyrazin-8-ylamine]
S6 ribosomal protein; HCT116
  phosphorylation of S6 ribosomal protein: inhibits
S6 ribosomal protein; HT29
  phosphorylation of S6 ribosomal protein: inhibits
p42/44 MAPK; HCT116
  IGF-2 induced phosphorylation of p42/44 MAPK: not in resistant HCT116
p42/44 MAPK; HT29
  IGF-2 induced phosphorylation of p42/44 MAPK: inhibited
Akt; HCT116
  phosphorylation of Akt: inhibits
Akt; HT29
  phosphorylation of Akt: inhibits
IGF1R; HCT116
  IGF-2 induced tyrosine autophosphorylation of IGF1R: almost fully inhibits
IGF1R; HT29
  IGF-2 induced tyrosine autophosphorylation of IGF1R: almost fully inhibits

## C[C@]1(O)C[C@@H](c2nc(-c3ccc4ccc(-c5ccccc5)nc4c3)c3c(N)nccn32)C1 [OSI-906, cis-3-[8-amino-1-(2-phenyl-quinolin-7-yl)-imidazo[1,5-a]pyrazin-3-yl]-1-methyl-cyclobutanol]
GEO CRC cell line; 72 hours, read-out: IC50, proliferation, OSI-906 (SRB)
  IC50: ≤ 1.5 µM
GEO CRC cell line; read-out: S/I/R to OSI-906
  IC50: ≤ 1.5 µM

— patent US8163509B2, “Biological markers predictive of anti-cancer response to insulin-like growth factor-1 receptor kinase inhibitors” (The Regents of the University of Colorado, A Body Corporate, priority 2008, dated 2012)
